Reference: PubChem BioAssay AID248 (DTP/NCI, 2004)
Several values for one entry are separate records, joined by “and”; a condition that tells them apart may be missing. Identical values can stand only once. Inconclusive results and toxic doses are left out.

System: L1210 leukemia ip in BDF1 mice, survival T/C
Test: NCI In Vivo Anticancer Drug Screen. Data for tumor model L1210 Leukemia (intraperitoneal) in B6D2F1 (BDF1) mice
Settings: endpoint: mean survival time, higher = longer survival
Summary of the method: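 Antitumor effect is assessed in tumor-bearing animals. Survival in the compound arm is compared with a vehicle-dosed control arm and expressed as their quotient.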

`S=c1[nH]nc2scnn12` was tested, and the T/C (dose: 50.0 mg/kg/injection, schedule: Q01DX001 (ip), vehicle: carboxymethylcellulose (CMC)) was 94 % of control, the T/C (dose: 100.0 mg/kg/injection, schedule: Q01DX001 (ip), vehicle: carboxymethylcellulose (CMC)) was 94 % of control and the T/C (dose: 200.0 mg/kg/injection, schedule: Q01DX001 (ip), vehicle: carboxymethylcellulose (CMC)) was 97 % of control. The T/C (dose: 400.0 mg/kg/injection, schedule: Q01DX001 (ip), vehicle: carboxymethylcellulose (CMC)) was 94 % of control.

In the case of `O=C1C(NCC(O)CO)=C(N2CC2)C(=O)C(NCC(O)CO)=C1N1CC1` (stereo not given), the T/C (dose: 0.12 mg/kg/injection, schedule: Q04DX003 (ip), vehicle: saline) is reported as 106 % of control, the T/C (dose: 0.25 mg/kg/injection, schedule: Q01DX009 (ip), vehicle: saline) is reported as 119 % of control and 120 % of control and the T/C (dose: 0.25 mg/kg/injection, schedule: Q04DX003 (ip), vehicle: saline) is reported as 106 % of control. The T/C (dose: 0.5 mg/kg/injection, schedule: Q01DX009 (ip), vehicle: saline) was 120 % of control and 121 % of control, the T/C (dose: 0.5 mg/kg/injection, schedule: Q04DX003 (ip), vehicle: saline) was 112 % of control and the T/C (dose: 1.0 mg/kg/injection, schedule: Q01DX009 (ip), vehicle: saline) was 156 % of control. The T/C (dose: 1.0 mg/kg/injection, schedule: Q04DX003 (ip), vehicle: saline) was 104 % of control, the T/C (dose: 2.0 mg/kg/injection, schedule: Q01DX001 (ip), vehicle: saline) was 189 % of control and the T/C (dose: 2.0 mg/kg/injection, schedule: Q01DX009 (ip), vehicle: saline) was 216 % of control and 233 % of control. The T/C (dose: 2.0 mg/kg/injection, schedule: Q04DX003 (ip), vehicle: saline) was 161 % of control, the T/C (dose: 4.0 mg/kg/injection, schedule: Q01DX001 (ip), vehicle: saline) was 153 % of control and the T/C (dose: 4.0 mg/kg/injection, schedule: Q01DX009 (ip), vehicle: saline) was 199 % of control and 306 % of control. For the same molecule, the T/C (dose: 4.0 mg/kg/injection, schedule: Q04DX003 (ip), vehicle: saline) was 173 % of control and 190 % of control, the T/C (dose: 8.0 mg/kg/injection, schedule: Q01DX009 (ip), vehicle: saline) was 98 % of control and 102 % of control and the T/C (dose: 8.0 mg/kg/injection, schedule: Q04DX003 (ip), vehicle: saline) was 179 % of control.

For `CC1=CC2(C)CCC(=O)C(Cc3c(CCCC4(C)OCCO4)noc3C)=C2CC1` (stereo not given), the T/C (dose: 100.0 mg/kg/injection, schedule: Q04DX003 (ip), vehicle: Klucel (hydroxypropylcellulose) (HPC)) was 95 % of control, the T/C (dose: 200.0 mg/kg/injection, schedule: Q04DX003 (ip), vehicle: Klucel (hydroxypropylcellulose) (HPC)) was 95 % of control and the T/C (dose: 400.0 mg/kg/injection, schedule: Q04DX003 (ip), vehicle: Klucel (hydroxypropylcellulose) (HPC)) was 91 % of control.

`CC(=O)C(O)N1C(=O)C=CC1=O` (stereo not given) was tested, and the T/C (dose: 1.25 mg/kg/injection, schedule: Q01DX009 (ip), vehicle: saline) was 103 % of control, the T/C (dose: 1.25 mg/kg/injection, schedule: Q#A X018 (ip), vehicle: saline) was 103 % of control and the T/C (dose: 2.5 mg/kg/injection, schedule: Q01DX009 (ip), vehicle: saline) was 100 % of control. The T/C (dose: 2.5 mg/kg/injection, schedule: Q04DX003 (ip), vehicle: water) was 104 % of control, the T/C (dose: 2.5 mg/kg/injection, schedule: Q## X006 (ip), vehicle: water) was 104 % of control and the T/C (dose: 2.5 mg/kg/injection, schedule: Q#A X018 (ip), vehicle: saline) was 102 % of control. The T/C (dose: 5.0 mg/kg/injection, schedule: Q01DX009 (ip), vehicle: saline) was 91 % of control, the T/C (dose: 5.0 mg/kg/injection, schedule: Q04DX003 (ip), vehicle: water) was 102 % of control and the T/C (dose: 5.0 mg/kg/injection, schedule: Q## X006 (ip), vehicle: water) was 102 % of control. The T/C (dose: 5.0 mg/kg/injection, schedule: Q#A X018 (ip), vehicle: saline) was 100 % of control, the T/C (dose: 10.0 mg/kg/injection, schedule: Q## X006 (ip), vehicle: water) was 104 % of control and the T/C (dose: 10.0 mg/kg/injection, schedule: Q#A X018 (ip), vehicle: saline) was 100 % of control.

With `S=c1[nH]nc(Nc2ccccc2Cl)s1` the T/C (dose: 100.0 mg/kg/injection, schedule: Q01DX009 (ip), vehicle: Klucel (hydroxypropylcellulose) (HPC)) was 97 % of control, the T/C (dose: 200.0 mg/kg/injection, schedule: Q01DX009 (ip), vehicle: Klucel (hydroxypropylcellulose) (HPC)) was 98 % of control and the T/C (dose: 400.0 mg/kg/injection, schedule: Q01DX009 (ip), vehicle: Klucel (hydroxypropylcellulose) (HPC)) was 109 % of control.

For `O=C(O)/C=C/c1cnccn1`, the T/C (dose: 100.0 mg/kg/injection, schedule: Q04DX003 (ip), vehicle: carboxymethylcellulose (CMC)) was 103 % of control, the T/C (dose: 200.0 mg/kg/injection, schedule: Q04DX003 (ip), vehicle: carboxymethylcellulose (CMC)) was 93 % of control and the T/C (dose: 400.0 mg/kg/injection, schedule: Q04DX003 (ip), vehicle: carboxymethylcellulose (CMC)) was 97 % of control.
